Measurements from patent US6358947B1 (American Home Products Corporation, priority 1999, dated 2002).

Target: T1, hAR (Homo sapiens, UniProt P10275)
T1 sequence (P10275 1-920): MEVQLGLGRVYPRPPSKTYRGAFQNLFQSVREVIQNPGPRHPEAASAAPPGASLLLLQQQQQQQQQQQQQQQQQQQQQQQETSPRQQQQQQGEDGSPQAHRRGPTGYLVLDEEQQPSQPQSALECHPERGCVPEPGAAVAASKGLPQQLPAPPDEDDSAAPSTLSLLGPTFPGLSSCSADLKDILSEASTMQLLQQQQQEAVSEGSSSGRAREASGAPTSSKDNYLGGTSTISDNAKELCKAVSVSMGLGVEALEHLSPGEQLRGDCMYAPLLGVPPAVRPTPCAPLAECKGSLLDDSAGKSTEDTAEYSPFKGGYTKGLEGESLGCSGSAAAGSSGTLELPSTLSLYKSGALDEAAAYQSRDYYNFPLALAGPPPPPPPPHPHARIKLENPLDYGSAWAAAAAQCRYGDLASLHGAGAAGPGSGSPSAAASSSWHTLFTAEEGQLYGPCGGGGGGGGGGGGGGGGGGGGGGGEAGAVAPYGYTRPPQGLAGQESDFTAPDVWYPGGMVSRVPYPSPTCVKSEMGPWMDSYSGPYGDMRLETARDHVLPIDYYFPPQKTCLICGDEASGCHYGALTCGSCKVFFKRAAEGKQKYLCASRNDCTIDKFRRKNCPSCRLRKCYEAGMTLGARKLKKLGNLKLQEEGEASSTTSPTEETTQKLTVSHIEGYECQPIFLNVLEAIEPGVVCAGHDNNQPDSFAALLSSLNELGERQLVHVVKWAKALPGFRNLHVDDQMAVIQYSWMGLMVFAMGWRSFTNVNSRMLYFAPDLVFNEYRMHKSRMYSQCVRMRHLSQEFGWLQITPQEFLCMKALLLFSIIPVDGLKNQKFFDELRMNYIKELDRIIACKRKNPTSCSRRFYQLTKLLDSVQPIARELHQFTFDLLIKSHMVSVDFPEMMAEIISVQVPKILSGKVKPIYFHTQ
Test: Cotransfection assay, AR antagonist
Type: cell-based
Settings: read-out: AR Potency Antag

Row | IC50 | SMILES
1 | 200 nM | CC1(C)OC(=O)Nc2ccc3c(c21)COc1c(F)cccc1-3 [Compound 14, 7-Fluoro-4,4-dimethyl-5H-chromeno[3,4-f]-1,3-benzo[d]oxazin-2-one]
2 | 1000 nM | CC1(C)OC(=O)Nc2ccc3c(c21)COc1c(F)cc(Br)cc1-3 [Compound 20, 9-Bromo-7-fluoro-4,4-dimethyl-5H-chromeno[3,4-f]-1,3-benzo[d]oxazin-2-one]
3 | 130 nM | CC1(C)OC(=O)Nc2ccc3c(c21)COc1c(F)cc(C=O)cc1-3 [Compound 24, 7-fluoro-9-formyl-4,4-dimethyl-5H-chromeno[3,4-f]-1,3-benzo[d]oxazin-2-one]
4 | 300 nM | CC1(C)OC(=O)Nc2ccc3c(c21)COc1c(F)cc(C#N)cc1-3 [Compound 26, 9-cyano-7-fluoro-4,4-dimethyl-5H-chromeno[3,4-f]-1,3-benzo[d]oxazin-2-one]
5 | 100 nM | CC1(C)OC(=O)Nc2ccc3c(c21)COc1c(F)cc(C=NO)cc1-3 [Compound 25, 7-fluoro-9-hydroxyiminomethyl-4,4-dimethyl-5H-chromeno[3,4-f]-1,3-benzo[d]oxazin-2-one]
